Assays:
[1] = test system: Taleromyces macrosporus CBS 130.89; conditions: 2.5 ppm natamycin, heat treatment, apple juice; cited from earlier work
[2] = test system: Paecilomyces variotti (ATCC 22319); experiment: Heat treatment of Paecilomyces variotti spores in ice tea with natamycin, visual growth; assay type: cell-based; set-up: key to growth (+) or no growth (−): growth (+); no growth (−)
Procedure: Commercially available ice tea (Lipton, peach flavor, non-carbonated, 1.5 L) was adjusted to high water hardness by adding 1 ml of a solution of 39 g CaCl2 and 27 g MgCl2 added to 934 g water. ⅓ of this ice tea preparation (the pH of which was 3.15) was left as-such, ⅓ of the preparation was enriched with 5 ppm natamycin and ⅓ of the preparation was enriched with 10 ppm natamycin. Samples of 5 ml were made from each preparation in 15 ml sterile plastic tubes. Of each preparation 8 samples were pre-heated to the desired pasteurization temperature using a water bath. Temperatures used were RT, 60, 65, 70, 75, 80, 85 and 90° C. When the desired temperature was reached, 100 μl of a 2500 spores/ml spore suspension of Aspergillus niger ATCC 9029AA was added to each tube. Subsequently, the samples were kept for 30 seconds at the temperature in question in the water bath. Next, the samples were cooled on ice to a temperature of 25° C. Samples were incubated at 25° C. and visually examined for growth (formation of mold flakes or turbidity) for two months. Additionally, samples were enumerated according to ISO protocol 21527-1.2008 on day 0 (before heat treatment) and day 1 (after heat treatment) to count immediate loss of viability. […] For the results, see Table 1. […] Example 1 was repeated however with Paecilomyces variotti (ATCC 22319, 1000 spores/ml) instead of Aspergillus niger.

In the case of C[C@@H]1C/C=C/C=C/C=C/C=C/[C@H](O[C@@H]2O[C@H](C)[C@@H](O)[C@H](N)[C@@H]2O)C[C@@H]2O[C@](O)(C[C@@H](O)C[C@H]3O[C@@H]3/C=C/C(=O)O1)C[C@H](O)[C@H]2C(=O)O [natamycin], the “duration of prevention of germination” value [1] is listed as 4 days, the germination ([2]; 90° C., in the presence of natamycin) is listed as “no germination occurred” and the germination ([2]; RT and 60° C., 5 or 10 ppm natamycin) is listed as “delayed germination”. The “growth (+) or no growth (−)” value ([2]; T 60, natamycin 5 ppm, day 1) was “−”, the “growth (+) or no growth (−)” value ([2]; T 60, natamycin 5 ppm, day 2) was “−” and the “growth (+) or no growth (−)” value ([2]; T 60, natamycin 5 ppm, day 3) was “−”. The “growth (+) or no growth (−)” value ([2]; T 60, natamycin 5 ppm, day 4) was “−”, the “growth (+) or no growth (−)” value ([2]; T 60, natamycin 5 ppm, day 5) was “−” and the “growth (+) or no growth (−)” value ([2]; T 60, natamycin 5 ppm, day 6) was “−”. For the same compound, the “growth (+) or no growth (−)” value ([2]; T 60, natamycin 5 ppm, day 7) was “−”, the “growth (+) or no growth (−)” value ([2]; T 60, natamycin 5 ppm, day 8) was “−” and the “growth (+) or no growth (−)” value ([2]; T 60, natamycin 5 ppm, day 9) was “−”. The “growth (+) or no growth (−)” value ([2]; T 60, natamycin 5 ppm, day 10) was “+”, the “growth (+) or no growth (−)” value ([2]; T 60, natamycin 5 ppm, day 11) was “+” and the “growth (+) or no growth (−)” value ([2]; T 60, natamycin 5 ppm, day 12) was “+”. For the same compound, the “growth (+) or no growth (−)” value ([2]; T 60, natamycin 5 ppm, day 13) was “+”, the “growth (+) or no growth (−)” value ([2]; T 60, natamycin 5 ppm, day 14) was “+” and the “growth (+) or no growth (−)” value ([2]; T 60, natamycin 5 ppm, day 15) was “+”. The “growth (+) or no growth (−)” value ([2]; T 60, natamycin 5 ppm, day 16) was “+”, the “growth (+) or no growth (−)” value ([2]; T 60, natamycin 5 ppm, day 17) was “+” and the “growth (+) or no growth (−)” value ([2]; T 60, natamycin 5 ppm, day 50) was “+”. For the same compound, the “growth (+) or no growth (−)” value ([2]; T 60, natamycin 10 ppm, day 1) was “−”, the “growth (+) or no growth (−)” value ([2]; T 60, natamycin 10 ppm, day 2) was “−” and the “growth (+) or no growth (−)” value ([2]; T 60, natamycin 10 ppm, day 3) was “−”. For the same compound, the “growth (+) or no growth (−)” value ([2]; T 60, natamycin 10 ppm, day 4) was “−”, the “growth (+) or no growth (−)” value ([2]; T 60, natamycin 10 ppm, day 5) was “−” and the “growth (+) or no growth (−)” value ([2]; T 60, natamycin 10 ppm, day 6) was “−”. The “growth (+) or no growth (−)” value ([2]; T 60, natamycin 10 ppm, day 7) was “−”, the “growth (+) or no growth (−)” value ([2]; T 60, natamycin 10 ppm, day 8) was “−” and the “growth (+) or no growth (−)” value ([2]; T 60, natamycin 10 ppm, day 9) was “−”. For the same compound, the “growth (+) or no growth (−)” value ([2]; T 60, natamycin 10 ppm, day 10) was “−”, the “growth (+) or no growth (−)” value ([2]; T 60, natamycin 10 ppm, day 11) was “−” and the “growth (+) or no growth (−)” value ([2]; T 60, natamycin 10 ppm, day 12) was “−”. For the same compound, the “growth (+) or no growth (−)” value ([2]; T 60, natamycin 10 ppm, day 13) was “−”, the “growth (+) or no growth (−)” value ([2]; T 60, natamycin 10 ppm, day 14) was “+” and the “growth (+) or no growth (−)” value ([2]; T 60, natamycin 10 ppm, day 15) was “+”. For the same compound, the “growth (+) or no growth (−)” value ([2]; T 60, natamycin 10 ppm, day 16) was “+”, the “growth (+) or no growth (−)” value ([2]; T 60, natamycin 10 ppm, day 17) was “+” and the “growth (+) or no growth (−)” value ([2]; T 60, natamycin 10 ppm, day 50) was “+”. The “growth (+) or no growth (−)” value ([2]; T 65, natamycin 5 ppm, day 1) was “−”, the “growth (+) or no growth (−)” value ([2]; T 65, natamycin 5 ppm, day 2) was “−” and the “growth (+) or no growth (−)” value ([2]; T 65, natamycin 5 ppm, day 3) was “−”. The “growth (+) or no growth (−)” value ([2]; T 65, natamycin 5 ppm, day 4) was “−”, the “growth (+) or no growth (−)” value ([2]; T 65, natamycin 5 ppm, day 5) was “−” and the “growth (+) or no growth (−)” value ([2]; T 65, natamycin 5 ppm, day 6) was “−”. For the same compound, the “growth (+) or no growth (−)” value ([2]; T 65, natamycin 5 ppm, day 7) was “−”, the “growth (+) or no growth (−)” value ([2]; T 65, natamycin 5 ppm, day 8) was “−” and the “growth (+) or no growth (−)” value ([2]; T 65, natamycin 5 ppm, day 9) was “−”. For the same compound, the “growth (+) or no growth (−)” value ([2]; T 65, natamycin 5 ppm, day 10) was “−”, the “growth (+) or no growth (−)” value ([2]; T 65, natamycin 5 ppm, day 11) was “−” and the “growth (+) or no growth (−)” value ([2]; T 65, natamycin 5 ppm, day 12) was “−”. The “growth (+) or no growth (−)” value ([2]; T 65, natamycin 5 ppm, day 13) was “−”, the “growth (+) or no growth (−)” value ([2]; T 65, natamycin 5 ppm, day 14) was “−” and the “growth (+) or no growth (−)” value ([2]; T 65, natamycin 5 ppm, day 15) was “−”. The “growth (+) or no growth (−)” value ([2]; T 65, natamycin 5 ppm, day 16) was “−”, the “growth (+) or no growth (−)” value ([2]; T 65, natamycin 5 ppm, day 17) was “−” and the “growth (+) or no growth (−)” value ([2]; T 65, natamycin 5 ppm, day 50) was “−”. For the same compound, the “growth (+) or no growth (−)” value ([2]; T 65, natamycin 10 ppm, day 1) was “−”, the “growth (+) or no growth (−)” value ([2]; T 65, natamycin 10 ppm, day 2) was “−” and the “growth (+) or no growth (−)” value ([2]; T 65, natamycin 10 ppm, day 3) was “−”. For the same compound, the “growth (+) or no growth (−)” value ([2]; T 65, natamycin 10 ppm, day 4) was “−”, the “growth (+) or no growth (−)” value ([2]; T 65, natamycin 10 ppm, day 5) was “−” and the “growth (+) or no growth (−)” value ([2]; T 65, natamycin 10 ppm, day 6) was “−”. The “growth (+) or no growth (−)” value ([2]; T 65, natamycin 10 ppm, day 7) was “−”, the “growth (+) or no growth (−)” value ([2]; T 65, natamycin 10 ppm, day 8) was “−” and the “growth (+) or no growth (−)” value ([2]; T 65, natamycin 10 ppm, day 9) was “−”. For the same compound, the “growth (+) or no growth (−)” value ([2]; T 65, natamycin 10 ppm, day 10) was “−”, the “growth (+) or no growth (−)” value ([2]; T 65, natamycin 10 ppm, day 11) was “−” and the “growth (+) or no growth (−)” value ([2]; T 65, natamycin 10 ppm, day 12) was “−”. The “growth (+) or no growth (−)” value ([2]; T 65, natamycin 10 ppm, day 13) was “−”, the “growth (+) or no growth (−)” value ([2]; T 65, natamycin 10 ppm, day 14) was “−” and the “growth (+) or no growth (−)” value ([2]; T 65, natamycin 10 ppm, day 15) was “−”. For the same compound, the “growth (+) or no growth (−)” value ([2]; T 65, natamycin 10 ppm, day 16) was “−”, the “growth (+) or no growth (−)” value ([2]; T 65, natamycin 10 ppm, day 17) was “−” and the “growth (+) or no growth (−)” value ([2]; T 65, natamycin 10 ppm, day 50) was “−”. For the same compound, the “growth (+) or no growth (−)” value ([2]; T 70, natamycin 5 ppm, day 1) was “−”, the “growth (+) or no growth (−)” value ([2]; T 70, natamycin 5 ppm, day 2) was “−” and the “growth (+) or no growth (−)” value ([2]; T 70, natamycin 5 ppm, day 3) was “−”. For the same compound, the “growth (+) or no growth (−)” value ([2]; T 70, natamycin 5 ppm, day 4) was “−”, the “growth (+) or no growth (−)” value ([2]; T 70, natamycin 5 ppm, day 5) was “−” and the “growth (+) or no growth (−)” value ([2]; T 70, natamycin 5 ppm, day 6) was “−”. For the same compound, the “growth (+) or no growth (−)” value ([2]; T 70, natamycin 5 ppm, day 7) was “−”, the “growth (+) or no growth (−)” value ([2]; T 70, natamycin 5 ppm, day 8) was “−” and the “growth (+) or no growth (−)” value ([2]; T 70, natamycin 5 ppm, day 9) was “−”. For the same compound, the “growth (+) or no growth (−)” value ([2]; T 70, natamycin 5 ppm, day 10) was “−”, the “growth (+) or no growth (−)” value ([2]; T 70, natamycin 5 ppm, day 11) was “−” and the “growth (+) or no growth (−)” value ([2]; T 70, natamycin 5 ppm, day 12) was “−”. The “growth (+) or no growth (−)” value ([2]; T 70, natamycin 5 ppm, day 13) was “−”, the “growth (+) or no growth (−)” value ([2]; T 70, natamycin 5 ppm, day 14) was “−” and the “growth (+) or no growth (−)” value ([2]; T 70, natamycin 5 ppm, day 15) was “−”. For the same compound, the “growth (+) or no growth (−)” value ([2]; T 70, natamycin 5 ppm, day 16) was “−”, the “growth (+) or no growth (−)” value ([2]; T 70, natamycin 5 ppm, day 17) was “−” and the “growth (+) or no growth (−)” value ([2]; T 70, natamycin 5 ppm, day 50) was “−”. The “growth (+) or no growth (−)” value ([2]; T 70, natamycin 10 ppm, day 9) was “−”, the “growth (+) or no growth (−)” value ([2]; T 70, natamycin 10 ppm, day 10) was “−” and the “growth (+) or no growth (−)” value ([2]; T 70, natamycin 10 ppm, day 11) was “−”. For the same compound, the “growth (+) or no growth (−)” value ([2]; T 70, natamycin 10 ppm, day 12) was “−”, the “growth (+) or no growth (−)” value ([2]; T 70, natamycin 10 ppm, day 13) was “−” and the “growth (+) or no growth (−)” value ([2]; T 70, natamycin 10 ppm, day 14) was “−”. For the same compound, the “growth (+) or no growth (−)” value ([2]; T 70, natamycin 10 ppm, day 15) was “−”, the “growth (+) or no growth (−)” value ([2]; T 70, natamycin 10 ppm, day 16) was “−” and the “growth (+) or no growth (−)” value ([2]; T 70, natamycin 10 ppm, day 17) was “−”. The “growth (+) or no growth (−)” value ([2]; T 70, natamycin 10 ppm, day 50) was “−”.
